We go through eleven molecules from ChEMBL document CHEMBL1201862, “PubChem BioAssay data set” (2004).

SMILES strings stand for the structures. Activity calls are given as the source filed them. Some results are limits rather than exact numbers.

In assay [1] the target is DNA dC->dU-editing enzyme APOBEC-3G (Homo sapiens, UniProt Q9HC16). As to the kind of experiment: Dose Response confirmation of small molecule APOBEC3G DNA Deaminase Inhibitors via a fluorescence-based single-stranded DNA deaminase assay. [Related pubchem assays (depositor defined):AID493012, AID493028]. It counts as functional.
Another assay concerns the target T1, Leucine aminopeptidase (Plasmodium falciparum 3D7, UniProt Q8IL11).
T1 sequence (Q8IL11 whole entry): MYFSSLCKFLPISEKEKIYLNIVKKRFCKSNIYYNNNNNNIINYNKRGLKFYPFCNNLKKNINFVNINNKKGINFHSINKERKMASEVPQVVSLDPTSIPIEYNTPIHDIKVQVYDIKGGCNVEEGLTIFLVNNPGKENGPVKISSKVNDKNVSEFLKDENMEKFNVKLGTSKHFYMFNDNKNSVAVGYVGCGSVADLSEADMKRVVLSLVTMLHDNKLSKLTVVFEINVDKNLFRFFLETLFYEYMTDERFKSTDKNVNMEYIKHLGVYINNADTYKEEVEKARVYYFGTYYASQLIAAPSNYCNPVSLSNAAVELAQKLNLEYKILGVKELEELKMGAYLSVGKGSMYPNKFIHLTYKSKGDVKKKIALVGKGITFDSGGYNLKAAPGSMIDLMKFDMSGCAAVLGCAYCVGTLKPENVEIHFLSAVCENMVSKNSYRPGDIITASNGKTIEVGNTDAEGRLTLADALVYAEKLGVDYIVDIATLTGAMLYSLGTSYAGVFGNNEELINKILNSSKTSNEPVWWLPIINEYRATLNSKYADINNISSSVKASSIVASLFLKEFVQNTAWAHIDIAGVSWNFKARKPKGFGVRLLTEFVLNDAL
In words: P. falciparum M17LAP inhibitors, primary screen, biochemical, fluorogenic H-Leu-NHMec substrate, 1536-well (AID 1619). It counts as functional.

The target in assay [2] is Beta-2 adrenergic receptor (Homo sapiens, UniProt P07550). In words: ADRB2 activation measured by internalization – cell-based, FAP fluorogen, flow cytometry, cherry pick 1, dose response (AID 588763). Format: functional.
Assay [3] addresses T2, Nucleotide-binding oligomerization domain-containing protein 1 (Homo sapiens, UniProt Q9Y239).
T2 sequence (Q9Y239 whole entry): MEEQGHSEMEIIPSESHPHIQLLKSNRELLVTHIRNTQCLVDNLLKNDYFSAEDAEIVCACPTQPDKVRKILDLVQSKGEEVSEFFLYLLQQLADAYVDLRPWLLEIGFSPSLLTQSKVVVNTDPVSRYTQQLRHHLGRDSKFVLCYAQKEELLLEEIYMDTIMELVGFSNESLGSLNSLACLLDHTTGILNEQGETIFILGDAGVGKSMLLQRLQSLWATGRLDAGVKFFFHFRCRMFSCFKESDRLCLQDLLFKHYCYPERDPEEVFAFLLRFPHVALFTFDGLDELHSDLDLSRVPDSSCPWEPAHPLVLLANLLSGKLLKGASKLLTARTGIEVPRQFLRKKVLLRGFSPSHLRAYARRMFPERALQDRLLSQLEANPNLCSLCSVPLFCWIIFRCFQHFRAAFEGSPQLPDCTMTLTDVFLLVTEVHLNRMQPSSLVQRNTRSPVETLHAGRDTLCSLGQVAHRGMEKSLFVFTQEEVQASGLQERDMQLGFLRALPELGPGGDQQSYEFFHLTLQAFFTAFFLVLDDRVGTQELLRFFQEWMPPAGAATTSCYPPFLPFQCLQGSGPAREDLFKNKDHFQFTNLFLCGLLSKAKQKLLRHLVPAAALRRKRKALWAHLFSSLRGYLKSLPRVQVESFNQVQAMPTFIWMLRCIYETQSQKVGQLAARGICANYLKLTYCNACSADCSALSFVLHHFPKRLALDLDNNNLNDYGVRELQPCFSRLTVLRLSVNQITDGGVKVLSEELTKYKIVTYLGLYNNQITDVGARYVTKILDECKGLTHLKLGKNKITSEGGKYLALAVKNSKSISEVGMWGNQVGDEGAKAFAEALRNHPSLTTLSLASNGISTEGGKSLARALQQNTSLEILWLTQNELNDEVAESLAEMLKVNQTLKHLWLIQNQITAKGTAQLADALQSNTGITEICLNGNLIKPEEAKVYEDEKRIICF
In words: blockers of NOD1 pathway activity – revised, SAR follow-up (AID 2333). Format: functional.

The next assay addresses Tumor necrosis factor (Homo sapiens, UniProt P01375). In words: analog potency on TNFa NF-kB signaling – cell-based, revised, SAR follow-up (AID 2337). Format: functional.
For the next assay, the system named is HEK293. In words: cells. Conditions: Homo sapiens.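 Further: cells exposed to compound for 14 hours overnight before viability readout.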
Assay [4] has as its system BJ. In words: cells. Format: functional, cell-based. Conditions: Homo sapiens.
Assay [5] deals with BJ. As to the kind of experiment: BJ-TERT-LT-ST fibroblast viability loss – cell-based, RAS-independent, luminescence, dose response (AID 1935).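 Further: BJ fibroblasts immortalized with TERT plus LT and ST oncogenes.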 Format: functional. Conditions: Homo sapiens.
Assay [6] in a line: DRD fibroblast viability loss – cell-based, non-viral oncogenic, luminescence, dose response (AID 1934). Format: functional. Conditions: Homo sapiens.
Assay [7] concerns BJ. As to the kind of experiment: BJ-TERT fibroblast viability loss – cell-based, RAS-independent, luminescence, dose response (AID 1933). Format: functional. Conditions: Homo sapiens.
Assay [8] concerns the target T3, Short transient receptor potential channel 4 (Mus musculus, UniProt Q9QUQ5).
T3 sequence (Q9QUQ5 whole entry): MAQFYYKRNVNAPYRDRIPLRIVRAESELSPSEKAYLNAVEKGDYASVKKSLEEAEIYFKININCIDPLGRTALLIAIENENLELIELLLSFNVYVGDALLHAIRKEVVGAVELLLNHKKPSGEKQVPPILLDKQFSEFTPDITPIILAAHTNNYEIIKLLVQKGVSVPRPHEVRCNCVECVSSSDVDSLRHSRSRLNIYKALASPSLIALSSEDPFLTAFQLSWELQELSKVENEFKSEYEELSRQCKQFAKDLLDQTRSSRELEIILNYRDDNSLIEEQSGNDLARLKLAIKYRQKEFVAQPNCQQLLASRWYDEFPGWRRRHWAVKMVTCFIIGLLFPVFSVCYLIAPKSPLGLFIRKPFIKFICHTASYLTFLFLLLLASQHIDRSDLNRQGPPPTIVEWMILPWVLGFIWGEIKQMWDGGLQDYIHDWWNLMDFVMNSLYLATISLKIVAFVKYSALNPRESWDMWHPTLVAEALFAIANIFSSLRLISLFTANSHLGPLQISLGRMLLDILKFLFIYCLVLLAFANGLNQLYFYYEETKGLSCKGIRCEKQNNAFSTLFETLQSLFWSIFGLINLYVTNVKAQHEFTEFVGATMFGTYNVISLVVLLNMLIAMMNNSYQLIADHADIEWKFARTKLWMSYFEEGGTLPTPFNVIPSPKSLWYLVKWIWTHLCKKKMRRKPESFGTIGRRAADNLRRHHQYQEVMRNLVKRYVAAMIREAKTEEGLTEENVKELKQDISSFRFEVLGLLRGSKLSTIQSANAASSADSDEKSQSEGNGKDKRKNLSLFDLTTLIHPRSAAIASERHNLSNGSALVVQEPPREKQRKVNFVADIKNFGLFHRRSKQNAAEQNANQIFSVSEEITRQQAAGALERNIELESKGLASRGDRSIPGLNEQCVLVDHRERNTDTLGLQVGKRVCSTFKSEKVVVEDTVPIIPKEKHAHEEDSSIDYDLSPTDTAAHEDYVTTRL
In words: block of DAMGO-driven TRPC4 calcium entry – cell-based, HEK293 TRPC4/mu-opioid, Fluo-4 calcium, dose response (AID 434942).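 Further: potency of inhibitors blocking the TRPC4 calcium response.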 It counts as functional.

A further assay concerns the target Nonstructural protein 1 (Influenza A virus, UniProt Q194T2). Format: functional, Influenza A virus (A/California/07/2009(H1N1)).
For assay [9], the target named is T4, Apoptotic protease-activating factor 1 (Homo sapiens, UniProt O14727).
T4 sequence (O14727 whole entry): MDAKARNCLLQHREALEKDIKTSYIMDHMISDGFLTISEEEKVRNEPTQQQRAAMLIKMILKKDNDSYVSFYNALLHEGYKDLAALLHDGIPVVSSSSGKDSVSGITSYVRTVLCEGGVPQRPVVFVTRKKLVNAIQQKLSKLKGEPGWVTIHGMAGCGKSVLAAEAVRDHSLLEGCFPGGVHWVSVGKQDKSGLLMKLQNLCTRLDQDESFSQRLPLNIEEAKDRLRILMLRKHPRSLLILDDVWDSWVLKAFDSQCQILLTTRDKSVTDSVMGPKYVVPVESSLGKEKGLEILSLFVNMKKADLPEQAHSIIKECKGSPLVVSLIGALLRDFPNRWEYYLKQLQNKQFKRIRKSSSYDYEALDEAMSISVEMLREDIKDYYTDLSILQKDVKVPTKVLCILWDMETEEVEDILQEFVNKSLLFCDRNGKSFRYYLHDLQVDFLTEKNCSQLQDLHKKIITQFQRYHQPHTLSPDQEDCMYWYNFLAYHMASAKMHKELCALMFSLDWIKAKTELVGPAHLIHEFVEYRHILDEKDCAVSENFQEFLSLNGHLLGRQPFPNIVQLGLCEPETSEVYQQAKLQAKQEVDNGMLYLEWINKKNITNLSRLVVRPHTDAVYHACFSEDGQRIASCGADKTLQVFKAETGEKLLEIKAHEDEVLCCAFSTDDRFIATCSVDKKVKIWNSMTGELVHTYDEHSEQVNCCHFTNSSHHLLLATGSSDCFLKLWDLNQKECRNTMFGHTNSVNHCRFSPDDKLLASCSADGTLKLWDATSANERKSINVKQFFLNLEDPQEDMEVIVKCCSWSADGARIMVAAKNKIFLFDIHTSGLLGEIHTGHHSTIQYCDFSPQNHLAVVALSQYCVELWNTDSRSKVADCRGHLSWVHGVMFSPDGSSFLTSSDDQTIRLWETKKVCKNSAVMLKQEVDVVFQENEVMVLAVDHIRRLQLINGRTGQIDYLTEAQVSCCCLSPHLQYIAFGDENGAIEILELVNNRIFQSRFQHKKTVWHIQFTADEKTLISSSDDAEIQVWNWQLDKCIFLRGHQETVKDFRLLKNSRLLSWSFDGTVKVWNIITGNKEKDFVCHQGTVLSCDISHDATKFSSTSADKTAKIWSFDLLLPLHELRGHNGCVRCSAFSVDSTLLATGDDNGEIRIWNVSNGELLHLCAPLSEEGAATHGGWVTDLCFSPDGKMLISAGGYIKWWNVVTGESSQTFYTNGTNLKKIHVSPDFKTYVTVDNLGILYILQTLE
It counts as functional.

Chain of Tumor necrosis factor (P01375 whole entry): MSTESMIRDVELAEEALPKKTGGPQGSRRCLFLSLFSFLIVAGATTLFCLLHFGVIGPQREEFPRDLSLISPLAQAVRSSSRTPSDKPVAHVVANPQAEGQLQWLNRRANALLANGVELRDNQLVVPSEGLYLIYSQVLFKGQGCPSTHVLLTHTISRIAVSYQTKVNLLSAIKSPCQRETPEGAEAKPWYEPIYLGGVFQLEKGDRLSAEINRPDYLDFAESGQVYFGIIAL
Chain of Beta-2 adrenergic receptor (P07550 whole entry, the tested form may be a part): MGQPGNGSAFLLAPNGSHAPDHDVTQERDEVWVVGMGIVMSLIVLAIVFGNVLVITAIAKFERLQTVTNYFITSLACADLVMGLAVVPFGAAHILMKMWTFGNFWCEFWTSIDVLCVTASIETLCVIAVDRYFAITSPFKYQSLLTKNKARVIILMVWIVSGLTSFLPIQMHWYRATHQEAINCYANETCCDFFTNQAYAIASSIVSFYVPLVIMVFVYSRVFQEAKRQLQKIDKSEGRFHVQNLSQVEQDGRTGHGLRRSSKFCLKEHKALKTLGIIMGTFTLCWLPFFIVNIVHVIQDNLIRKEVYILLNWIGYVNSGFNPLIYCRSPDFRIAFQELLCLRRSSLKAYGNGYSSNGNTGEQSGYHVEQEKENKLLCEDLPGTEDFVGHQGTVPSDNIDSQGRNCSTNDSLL
Chain of Nonstructural protein 1 (Q194T2 whole entry): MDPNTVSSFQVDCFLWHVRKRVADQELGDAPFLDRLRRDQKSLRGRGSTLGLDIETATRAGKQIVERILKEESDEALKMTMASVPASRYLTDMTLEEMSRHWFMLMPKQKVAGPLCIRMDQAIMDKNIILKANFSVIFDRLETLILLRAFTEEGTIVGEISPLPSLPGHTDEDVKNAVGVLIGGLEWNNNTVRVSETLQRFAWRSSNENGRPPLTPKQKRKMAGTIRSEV
Chain of DNA dC->dU-editing enzyme APOBEC-3G (Q9HC16 whole entry): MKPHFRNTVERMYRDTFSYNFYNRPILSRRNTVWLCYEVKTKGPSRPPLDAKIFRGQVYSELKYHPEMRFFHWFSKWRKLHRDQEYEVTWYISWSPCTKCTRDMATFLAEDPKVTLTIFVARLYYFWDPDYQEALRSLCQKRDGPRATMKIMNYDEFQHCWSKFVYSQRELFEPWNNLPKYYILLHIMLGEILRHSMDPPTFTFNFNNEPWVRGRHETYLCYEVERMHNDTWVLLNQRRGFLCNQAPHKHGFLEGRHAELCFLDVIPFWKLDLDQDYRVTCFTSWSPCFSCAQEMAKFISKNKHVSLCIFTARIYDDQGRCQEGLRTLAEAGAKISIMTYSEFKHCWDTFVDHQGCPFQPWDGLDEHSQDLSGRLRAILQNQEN

For the molecule `Sc1nnc(-c2ccco2)[nH]1`, the IC50 in assay [1] was 12 µM (active); on Leucine aminopeptidase, 11 µM (active). Turning to `CCC(=O)Nc1ccc(-c2nn3c(C)nnc3s2)cc1C`, the EC50 in assay [2] was 3.12 µM (active).

`COc1ccc(NC(=O)c2ccc(CN3CCCCC3)cc2)cc1`: the IC50 (in [3]; at Tumor necrosis factor; in the assay on HEK293) was > 20 µM (inactive) in each case. Consider `O=C(Nc1ccc(S(=O)(=O)N2CCCCC2)cc1)c1ccc(CN2CCc3ccccc3C2)cc1`, for which the figures for the IC50 (in assay [3]; at Tumor necrosis factor; with HEK293) were 0.432 µM (active), 0.616 µM (active) and 19.5 µM (active), respectively. The EC50 in the assay on BJ [4] is 51.8 µM (active); in the assay with BJ [5], > 150 µM (not active); in [6], 22 µM (active); in the assay on BJ [7], 23.9 µM (active).

Turning to `CC1(C)CC2CC(C)(CN2C(=O)c2cc(-c3ccc(O)cc3)on2)C1` (stereo unspecified), the EC50 in [8] was 5.31 µM (active). With `O=C(CN1CCCCC1)N1c2ccccc2Oc2ccccc21`, in [8], the EC50 is 6.68 µM (active). `COCCn1c(SCc2cc(C(C)=O)ccc2OC)nc2cc(Cl)ccc2c1=O`: the 50% effective concentration (EC50) in [8] is 3.35 µM (active). With `CCc1ccc(CNC(=O)c2ccc(NC(=O)C3=CSCCO3)cc2)cc1`, the EC50 in assay [2] is 0.0949 µM (active). As for `Clc1ccc(CN2C3=NCCN3c3ccccc32)cc1Cl`, the EC50 in assay [8] is 1.19 µM (active). On the same count and under the same terms, the figure for `CC(C)(c1ccccc1)c1ccc(OCCCNCCO)cc1` is 4.22 µM (active). `O=C1C(NS(=O)(=O)c2ccc(Cl)cc2)=C(N2CCCCC2)C(=O)c2ccccc21`: the IC50 was 11.4 µM (active) at Nonstructural protein 1 and 30.5 µM (active) in [9].
